These results are taken from US9340590B2 (priority 2011, dated 2016).

Common to all, as to assay: cell-based
The target in one test is hNav1.7 (Homo sapiens, UniProt Q15858). The class given is cell-based. The conditions noted are these: IonWorks Quattro, use-dependent protocol, hNav1.7; read-out: IWQ Use Nav1.7. A general note: Patch clamp records ionic current or voltage across a cell membrane.
A further test deals with hNav1.5 (Homo sapiens, UniProt Q14524). The conditions noted are these: IonWorks Quattro, use-dependent protocol, hNav1.5; read-out: IWQ Use Nav1.5.
The target in the next test is hNav1.3 (Homo sapiens, UniProt Q9NY46). To be noted: IonWorks Quattro, use-dependent protocol, hNav1.3; read-out: IWQ Use Nav1.3.

pIC50: −log10 of the molar value. Positions of bridges follow the written chain, without caps; N, C: chain ends. Non-standard residues stand in square brackets, D forms with d. Residues, ends and D or L forms follow the SMILES beside them. Nva = CCC[C@H](N)C(=O)O; Abu = CC[C@H](N)C(=O)O A value given as a limit tells only on which side of the number the result lay.

hNav1.7, sequence (Q15858 whole entry, looked up): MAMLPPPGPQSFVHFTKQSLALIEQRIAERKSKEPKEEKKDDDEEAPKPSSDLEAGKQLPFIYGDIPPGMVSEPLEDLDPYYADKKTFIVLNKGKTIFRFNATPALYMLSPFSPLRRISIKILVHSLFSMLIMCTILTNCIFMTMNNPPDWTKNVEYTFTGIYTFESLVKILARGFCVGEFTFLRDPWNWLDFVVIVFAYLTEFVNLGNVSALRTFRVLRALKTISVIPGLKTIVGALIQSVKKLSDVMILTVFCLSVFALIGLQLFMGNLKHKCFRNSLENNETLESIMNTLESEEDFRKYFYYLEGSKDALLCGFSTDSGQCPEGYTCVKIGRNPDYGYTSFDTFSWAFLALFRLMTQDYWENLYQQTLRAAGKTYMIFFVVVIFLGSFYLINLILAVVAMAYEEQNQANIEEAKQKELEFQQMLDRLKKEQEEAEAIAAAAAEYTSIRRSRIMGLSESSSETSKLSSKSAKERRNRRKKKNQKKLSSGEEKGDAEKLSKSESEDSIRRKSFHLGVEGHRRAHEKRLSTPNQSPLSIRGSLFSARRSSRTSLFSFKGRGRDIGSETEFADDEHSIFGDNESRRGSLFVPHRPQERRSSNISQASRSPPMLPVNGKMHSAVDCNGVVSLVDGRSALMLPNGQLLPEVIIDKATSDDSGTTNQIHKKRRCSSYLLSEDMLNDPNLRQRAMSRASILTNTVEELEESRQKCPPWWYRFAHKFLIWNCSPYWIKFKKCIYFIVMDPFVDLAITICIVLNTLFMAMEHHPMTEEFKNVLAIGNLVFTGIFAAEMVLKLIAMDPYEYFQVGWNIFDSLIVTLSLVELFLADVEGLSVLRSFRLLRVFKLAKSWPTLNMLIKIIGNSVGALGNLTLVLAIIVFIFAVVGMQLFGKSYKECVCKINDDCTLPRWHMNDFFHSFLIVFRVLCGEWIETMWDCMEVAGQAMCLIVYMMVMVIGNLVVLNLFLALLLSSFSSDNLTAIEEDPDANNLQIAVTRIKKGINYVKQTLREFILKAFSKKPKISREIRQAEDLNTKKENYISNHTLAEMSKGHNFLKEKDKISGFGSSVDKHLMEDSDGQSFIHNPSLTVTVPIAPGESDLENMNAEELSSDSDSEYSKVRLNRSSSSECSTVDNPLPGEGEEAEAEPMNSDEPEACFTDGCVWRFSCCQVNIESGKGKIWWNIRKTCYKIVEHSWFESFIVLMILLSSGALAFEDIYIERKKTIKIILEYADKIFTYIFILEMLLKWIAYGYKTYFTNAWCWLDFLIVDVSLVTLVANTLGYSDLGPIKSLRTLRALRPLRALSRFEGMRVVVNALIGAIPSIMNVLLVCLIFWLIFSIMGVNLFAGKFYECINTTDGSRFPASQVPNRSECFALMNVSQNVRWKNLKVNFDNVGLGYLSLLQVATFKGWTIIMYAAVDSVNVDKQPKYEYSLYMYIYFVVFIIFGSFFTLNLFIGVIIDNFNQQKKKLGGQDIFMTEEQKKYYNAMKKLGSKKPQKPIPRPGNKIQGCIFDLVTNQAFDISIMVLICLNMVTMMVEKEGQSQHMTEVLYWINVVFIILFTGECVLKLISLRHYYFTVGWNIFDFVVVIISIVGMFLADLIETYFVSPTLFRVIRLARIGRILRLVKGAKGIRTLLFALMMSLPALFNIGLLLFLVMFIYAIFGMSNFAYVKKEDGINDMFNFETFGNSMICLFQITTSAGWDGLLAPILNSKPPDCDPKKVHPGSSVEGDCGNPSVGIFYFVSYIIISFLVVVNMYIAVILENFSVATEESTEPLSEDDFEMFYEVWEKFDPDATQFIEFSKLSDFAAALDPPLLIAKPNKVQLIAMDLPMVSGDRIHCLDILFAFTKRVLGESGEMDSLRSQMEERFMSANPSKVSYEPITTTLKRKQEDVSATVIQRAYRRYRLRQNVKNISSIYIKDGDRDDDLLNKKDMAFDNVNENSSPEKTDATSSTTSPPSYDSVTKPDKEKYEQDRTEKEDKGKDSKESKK
hNav1.5, sequence (Q14524 whole entry, looked up): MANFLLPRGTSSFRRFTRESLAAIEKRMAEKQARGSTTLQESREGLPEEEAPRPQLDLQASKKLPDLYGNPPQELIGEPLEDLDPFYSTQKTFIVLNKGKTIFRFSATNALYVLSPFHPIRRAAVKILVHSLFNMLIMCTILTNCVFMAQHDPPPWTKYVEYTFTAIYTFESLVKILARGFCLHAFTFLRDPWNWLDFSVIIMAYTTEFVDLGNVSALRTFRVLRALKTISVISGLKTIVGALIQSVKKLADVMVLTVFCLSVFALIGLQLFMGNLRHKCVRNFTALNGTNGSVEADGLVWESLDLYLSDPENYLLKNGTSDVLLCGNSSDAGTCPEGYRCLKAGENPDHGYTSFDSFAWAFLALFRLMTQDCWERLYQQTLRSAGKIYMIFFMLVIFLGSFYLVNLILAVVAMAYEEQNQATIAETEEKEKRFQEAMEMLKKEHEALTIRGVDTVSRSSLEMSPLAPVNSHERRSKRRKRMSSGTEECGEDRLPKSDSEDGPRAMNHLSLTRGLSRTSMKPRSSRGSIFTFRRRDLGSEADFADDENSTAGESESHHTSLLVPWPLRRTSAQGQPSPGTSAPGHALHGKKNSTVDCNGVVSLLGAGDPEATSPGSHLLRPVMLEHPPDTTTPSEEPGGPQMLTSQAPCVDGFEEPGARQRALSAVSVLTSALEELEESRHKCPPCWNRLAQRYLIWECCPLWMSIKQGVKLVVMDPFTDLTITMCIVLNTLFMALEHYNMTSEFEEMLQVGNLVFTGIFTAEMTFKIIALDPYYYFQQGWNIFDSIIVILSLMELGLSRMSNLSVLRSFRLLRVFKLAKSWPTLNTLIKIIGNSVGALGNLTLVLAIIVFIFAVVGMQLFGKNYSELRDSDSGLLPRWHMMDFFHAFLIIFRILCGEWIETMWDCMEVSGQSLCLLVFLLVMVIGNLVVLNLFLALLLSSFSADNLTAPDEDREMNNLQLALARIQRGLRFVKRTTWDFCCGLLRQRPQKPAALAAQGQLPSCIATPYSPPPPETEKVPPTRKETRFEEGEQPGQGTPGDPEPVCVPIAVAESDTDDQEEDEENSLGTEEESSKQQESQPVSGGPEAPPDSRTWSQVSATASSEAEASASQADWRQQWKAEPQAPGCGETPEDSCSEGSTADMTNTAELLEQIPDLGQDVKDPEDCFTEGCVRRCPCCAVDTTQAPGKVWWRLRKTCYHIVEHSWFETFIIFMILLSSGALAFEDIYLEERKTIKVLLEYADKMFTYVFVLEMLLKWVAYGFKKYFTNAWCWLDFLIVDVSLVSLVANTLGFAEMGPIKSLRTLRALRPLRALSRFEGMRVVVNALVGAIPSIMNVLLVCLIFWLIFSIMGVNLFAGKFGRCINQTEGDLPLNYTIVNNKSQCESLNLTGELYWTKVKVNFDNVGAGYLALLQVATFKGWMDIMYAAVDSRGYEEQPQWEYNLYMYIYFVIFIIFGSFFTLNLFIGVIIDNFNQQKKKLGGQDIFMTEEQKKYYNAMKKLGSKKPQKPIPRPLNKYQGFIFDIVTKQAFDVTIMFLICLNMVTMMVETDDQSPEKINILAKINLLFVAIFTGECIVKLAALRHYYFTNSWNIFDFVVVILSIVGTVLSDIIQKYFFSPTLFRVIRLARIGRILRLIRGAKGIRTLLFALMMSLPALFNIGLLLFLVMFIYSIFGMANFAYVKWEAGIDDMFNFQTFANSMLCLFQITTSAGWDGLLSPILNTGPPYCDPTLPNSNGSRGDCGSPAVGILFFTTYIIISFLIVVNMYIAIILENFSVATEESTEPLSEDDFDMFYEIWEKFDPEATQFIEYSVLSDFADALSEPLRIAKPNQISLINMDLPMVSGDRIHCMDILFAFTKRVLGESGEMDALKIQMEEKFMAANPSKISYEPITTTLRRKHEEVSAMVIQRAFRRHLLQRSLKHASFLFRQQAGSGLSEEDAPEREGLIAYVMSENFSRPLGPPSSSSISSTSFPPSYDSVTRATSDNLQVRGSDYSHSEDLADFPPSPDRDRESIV

For the compound `CSCC[C@@H]1NC(=O)[C@H](C)NC(=O)CNC(=O)[C@H](CC(C)C)NC(=O)[C@@H](NC(=O)[C@@H](N)CC(=O)O)CSSC[C@@H]2NC(=O)[C@@H]3CSSC[C@@H](C(=O)N[C@@H](CCCCN)C(=O)N[C@@H](Cc4ccc(O)cc4)C(=O)N[C@H](C(=O)N[C@@H](Cc4ccccc4)C(N)=O)C(C)C)NC(=O)[C@H](Cc4c[nH]c5ccccc45)NC(=O)[C@H](CCCCN)NC(=O)[C@H](Cc4c[nH]cn4)NC(=O)[C@H]([C@@H](C)O)NC(=O)[C@H](CCCNC(=N)N)NC(=O)[C@H](CO)NC(=O)[C@H](CSSC[C@H](NC(=O)[C@H](CCCCN)NC(=O)[C@H](CCCNC(=N)N)NC1=O)C(=O)N[C@@H](CC(=O)O)C(=O)N1CCC[C@H]1C(=O)N[C@@H](CC(=O)O)C(=O)N[C@@H](CC(N)=O)C(=O)N[C@@H](CC(=O)O)C(=O)N[C@@H](CCCCN)C(=O)N3)NC(=O)[C@H](C(C)C)NC(=O)[C@H](CC(C)C)NC(=O)[C@H](CC(N)=O)NC(=O)[C@@H]1CCCN1C(=O)[C@H](CCCNC(=N)N)NC2=O` [compound 700] (H-DCLGAMRKCDPDNDKCCRPNLVCSRTHKWCKYVF-NH2; disulfide 2-17, 9-23, 16-30), the pIC50 is 6.13 at hNav1.7, 4.46 at hNav1.5 and 6.08 on hNav1.3.
Turning to `CSCC[C@@H]1NC(=O)[C@H](C)NC(=O)CNC(=O)[C@H](CC(C)C)NC(=O)[C@@H](NC(=O)[C@@H](N)CC(=O)O)CSSC[C@@H]2NC(=O)[C@@H]3CSSC[C@@H](C(=O)N[C@@H](CCCCN)C(=O)N[C@@H](Cc4ccc(O)cc4)C(=O)N[C@H](C(=O)N[C@@H](Cc4ccccc4)C(N)=O)C(C)C)NC(=O)[C@H](Cc4c[nH]c5ccccc45)NC(=O)[C@H](CCCCN)NC(=O)[C@H](Cc4c[nH]cn4)NC(=O)[C@H]([C@@H](C)O)NC(=O)[C@H](CCCNC(=N)N)NC(=O)[C@H](CO)NC(=O)[C@H](CSSC[C@H](NC(=O)[C@H](CCCCN)NC(=O)[C@H](CCCNC(=N)N)NC1=O)C(=O)N[C@@H](CC(=O)O)C(=O)N1CCC[C@H]1C(=O)N[C@@H](CCC(=O)O)C(=O)N[C@@H](CC(N)=O)C(=O)N[C@@H](CC(=O)O)C(=O)N[C@@H](CCCCN)C(=O)N3)NC(=O)[C@H](C(C)C)NC(=O)[C@H](CC(C)C)NC(=O)[C@H](CC(N)=O)NC(=O)[C@@H]1CCCN1C(=O)[C@H](CCCNC(=N)N)NC2=O` [compound 701] (H-DCLGAMRKCDPENDKCCRPNLVCSRTHKWCKYVF-NH2; disulfide 2-17, 9-23, 16-30), the pIC50 on hNav1.7 was 6.01; at hNav1.5, 4.37; on hNav1.3, 5.82.
The matching figures for `CC(C)C[C@@H]1NC(=O)[C@@H](NC(=O)[C@@H](N)CC(=O)O)CSSC[C@@H]2NC(=O)[C@@H]3CSSC[C@@H](C(=O)N[C@@H](CCCCN)C(=O)N[C@@H](Cc4ccc(O)cc4)C(=O)N[C@H](C(=O)N[C@@H](Cc4ccccc4)C(N)=O)C(C)C)NC(=O)[C@H](Cc4c[nH]c5ccccc45)NC(=O)[C@H](CCCCN)NC(=O)[C@H](Cc4c[nH]cn4)NC(=O)[C@H]([C@@H](C)O)NC(=O)[C@H](CCCNC(=N)N)NC(=O)[C@H](CO)NC(=O)[C@H](CSSC[C@H](NC(=O)[C@H](CCCCN)NC(=O)[C@H](CCCNC(=N)N)NC(=O)[C@H](Cc4ccccc4)NC(=O)[C@H](C)NC(=O)CNC1=O)C(=O)N[C@@H](CC(=O)O)C(=O)N1CCC[C@H]1C(=O)N[C@@H](CC(=O)O)C(=O)N[C@@H](CC(N)=O)C(=O)N[C@@H](CC(=O)O)C(=O)N[C@@H](CCCCN)C(=O)N3)NC(=O)[C@H](C(C)C)NC(=O)[C@H](CC(C)C)NC(=O)[C@H](CC(N)=O)NC(=O)[C@@H]1CCCN1C(=O)[C@H](CCCNC(=N)N)NC2=O` [compound 702] (H-DCLGAFRKCDPDNDKCCRPNLVCSRTHKWCKYVF-NH2; disulfide 2-17, 9-23, 16-30): 6.14, 4.37 and 6.43.
Take `CC[C@H](C)[C@@H]1NC(=O)[C@@H]2CSSC[C@@H]3NC(=O)[C@H](C(C)C)NC(=O)[C@H](CC(C)C)NC(=O)[C@H](CC(N)=O)NC(=O)[C@@H]4CCCN4C(=O)[C@H](CCCNC(=N)N)NC(=O)[C@H](CSSC[C@H](NC(=O)[C@@H](N)CC(=O)O)C(=O)N[C@@H](CC(C)C)C(=O)NCC(=O)N[C@@H](C)C(=O)N[C@@H](Cc4ccccc4)C(=O)N[C@@H](CCCNC(=N)N)C(=O)N[C@@H](CCCCN)C(=O)N2)NC(=O)[C@H](CSSC[C@@H](C(=O)N[C@@H](CCCCN)C(=O)N[C@@H](Cc2ccc(O)cc2)C(=O)N[C@H](C(=O)N[C@@H](Cc2ccccc2)C(N)=O)C(C)C)NC(=O)[C@H](Cc2c[nH]c4ccccc24)NC(=O)[C@H](CCCCN)NC(=O)[C@H](Cc2c[nH]cn2)NC(=O)[C@H]([C@@H](C)O)NC(=O)[C@H](CCCNC(=N)N)NC(=O)[C@H](CO)NC3=O)NC(=O)[C@H](CCCCN)NC(=O)[C@H](CC(=O)O)NC(=O)[C@H](CC(N)=O)NC(=O)[C@H](CCC(=O)O)NC(=O)[C@@H]2CCCN2C1=O` [compound 703] (H-DCLGAFRKCIPENDKCCRPNLVCSRTHKWCKYVF-NH2; disulfide 2-17, 9-23, 16-30): the results for the pIC50 at hNav1.7, on hNav1.5 and at hNav1.3 were 6.21, 4.35 and 6.70, respectively.
The matching figures for `CC[C@H](C)[C@@H]1NC(=O)[C@@H]2CSSC[C@@H]3NC(=O)[C@H](C(C)C)NC(=O)[C@H](CC(C)C)NC(=O)[C@H](CC(N)=O)NC(=O)[C@@H]4CCCN4C(=O)[C@H](CCCNC(=N)N)NC(=O)[C@H](CSSC[C@H](NC(=O)[C@@H](N)CC(=O)O)C(=O)N[C@@H](CC(C)C)C(=O)NCC(=O)N[C@@H](C(C)C)C(=O)N[C@@H](CCSC)C(=O)N[C@@H](CCCNC(=N)N)C(=O)N[C@@H](CCCCN)C(=O)N2)NC(=O)[C@H](CSSC[C@@H](C(=O)N[C@@H](CCCCN)C(=O)N[C@@H](Cc2ccc(O)cc2)C(=O)N[C@H](C(=O)N[C@@H](Cc2ccccc2)C(N)=O)C(C)C)NC(=O)[C@H](Cc2c[nH]c4ccccc24)NC(=O)[C@H](CCC(=O)O)NC(=O)[C@H](Cc2c[nH]cn2)NC(=O)[C@H]([C@@H](C)O)NC(=O)[C@H](CCCNC(=N)N)NC(=O)[C@H](CO)NC3=O)NC(=O)[C@H](CCCCN)NC(=O)[C@H](CC(=O)O)NC(=O)[C@H](CC(N)=O)NC(=O)[C@H](CC(=O)O)NC(=O)[C@@H]2CCCN2C1=O` [compound 704] (H-DCLGVMRKCIPDNDKCCRPNLVCSRTHEWCKYVF-NH2; disulfide 2-17, 9-23, 16-30): 6.00, 4.31 and under 5.30.
The matching figures for `CCC[C@@H]1NC(=O)CNC(=O)[C@H](CC(C)C)NC(=O)[C@@H](NC(=O)[C@@H](N)CC(=O)O)CSSC[C@@H]2NC(=O)[C@@H]3CSSC[C@@H](C(=O)N[C@@H](CCCCN)C(=O)N[C@@H](Cc4ccc(O)cc4)C(=O)N[C@H](C(=O)N[C@@H](Cc4ccccc4)C(N)=O)C(C)C)NC(=O)[C@H](Cc4c[nH]c5ccccc45)NC(=O)[C@H](CCC(=O)O)NC(=O)[C@H](Cc4c[nH]cn4)NC(=O)[C@H]([C@@H](C)O)NC(=O)[C@H](CCCNC(=N)N)NC(=O)[C@H](CO)NC(=O)[C@H](CSSC[C@H](NC(=O)[C@H](CCCCN)NC(=O)[C@H](CCCNC(=N)N)NC(=O)[C@H](CCSC)NC1=O)C(=O)N[C@@H]([C@@H](C)CC)C(=O)N1CCC[C@H]1C(=O)N[C@@H](CC(=O)O)C(=O)N[C@@H](CC(N)=O)C(=O)N[C@@H](CC(=O)O)C(=O)N[C@@H](CCCCN)C(=O)N3)NC(=O)[C@H](C(C)C)NC(=O)[C@H](CC(C)C)NC(=O)[C@H](CC(N)=O)NC(=O)[C@@H]1CCCN1C(=O)[C@H](CCCNC(=N)N)NC2=O` [compound 705] (H-DCLG[Nva]MRKCIPDNDKCCRPNLVCSRTHEWCKYVF-NH2; disulfide 2-17, 9-23, 16-30): 6.37, 4.48 and 5.47.
In the case of `CC[C@@H]1NC(=O)CNC(=O)[C@H](CC(C)C)NC(=O)[C@@H](NC(=O)[C@@H](N)CC(=O)O)CSSC[C@@H]2NC(=O)[C@@H]3CSSC[C@@H](C(=O)N[C@@H](CCCCN)C(=O)N[C@@H](Cc4ccc(O)cc4)C(=O)N[C@H](C(=O)N[C@@H](Cc4ccccc4)C(N)=O)C(C)C)NC(=O)[C@H](Cc4c[nH]c5ccccc45)NC(=O)[C@H](CCC(=O)O)NC(=O)[C@H](Cc4c[nH]cn4)NC(=O)[C@H]([C@@H](C)O)NC(=O)[C@H](CCCNC(=N)N)NC(=O)[C@H](CO)NC(=O)[C@H](CSSC[C@H](NC(=O)[C@H](CCCCN)NC(=O)[C@H](CCCNC(=N)N)NC(=O)[C@H](CCSC)NC1=O)C(=O)N[C@@H]([C@@H](C)CC)C(=O)N1CCC[C@H]1C(=O)N[C@@H](CC(=O)O)C(=O)N[C@@H](CC(N)=O)C(=O)N[C@@H](CC(=O)O)C(=O)N[C@@H](CCCCN)C(=O)N3)NC(=O)[C@H](C(C)C)NC(=O)[C@H](CC(C)C)NC(=O)[C@H](CC(N)=O)NC(=O)[C@@H]1CCCN1C(=O)[C@H](CCCNC(=N)N)NC2=O` [compound 706] (H-DCLG[Abu]MRKCIPDNDKCCRPNLVCSRTHEWCKYVF-NH2; disulfide 2-17, 9-23, 16-30), the pIC50 at hNav1.7 is 5.85; on hNav1.5, under 4.30; at hNav1.3 it was under 5.30.
Regarding `CC[C@@H]1NC(=O)CNC(=O)[C@H](CC(C)C)NC(=O)[C@@H](NC(=O)[C@@H](N)CC(=O)O)CSSC[C@@H]2NC(=O)[C@@H]3CSSC[C@@H](C(=O)N[C@@H](CCCCN)C(=O)N[C@@H](Cc4ccc(O)cc4)C(=O)N[C@H](C(=O)N[C@@H](Cc4ccccc4)C(N)=O)C(C)C)NC(=O)[C@H](Cc4c[nH]c5ccccc45)NC(=O)[C@H](CCC(=O)O)NC(=O)[C@H](Cc4c[nH]cn4)NC(=O)[C@H]([C@@H](C)O)NC(=O)[C@H](CCCNC(=N)N)NC(=O)[C@H](CO)NC(=O)[C@H](CSSC[C@H](NC(=O)[C@H](CCCCN)NC(=O)[C@H](CCCNC(=N)N)NC(=O)[C@H](CC(C)C)NC1=O)C(=O)N[C@@H]([C@@H](C)CC)C(=O)N1CCC[C@H]1C(=O)N[C@@H](CC(=O)O)C(=O)N[C@@H](CC(N)=O)C(=O)N[C@@H](CC(=O)O)C(=O)N[C@@H](CCCCN)C(=O)N3)NC(=O)[C@H](C(C)C)NC(=O)[C@H](CC(C)C)NC(=O)[C@H](CC(N)=O)NC(=O)[C@@H]1CCCN1C(=O)[C@H](CCCNC(=N)N)NC2=O` [compound 707] (H-DCLG[Abu]LRKCIPDNDKCCRPNLVCSRTHEWCKYVF-NH2; disulfide 2-17, 9-23, 16-30), the pIC50 on hNav1.7 is 5.92; on hNav1.5, 5.22; at hNav1.3, under 5.30.
